Values quoted from earlier work in patent US20200397744A1, “COMPOSITIONS COMPRISING CO-CRYSTALS OF STILBENOIDS AND CANNABINOIDS” (priority 2018, published 2020).

Assays:
cancer cell lines = cancer cell lines in vitro
[1] = in vivo

| Structure (SMILES) | decrease of plasma glucose levels (hyperglycemic rats) | cytotoxic activity (cancer cell lines) | bioavailability [1] |
| --- | --- | --- | --- |
| CN(C)C(=N)N=C(N)N [metformin] | 48% |  |  |
| COc1cc(/C=C/c2ccc(O)cc2)cc(OC)c1 [pterostilbene, trans-3,5-dimethoxy-4′-hydroxystilbene] |  | cytotoxic activity | poor bioavailability |
